The source made the active and inactive calls. No cut-off for these calls is given here.
Key:
Cardiac muscle cell = experiment: Cytoprotective activity against OGD-induced myocardial ischemic injury in neonatal rat primary cardiomyocytes assessed as decrease in cellular damage at 1 uM preincubated for 12 hrs followed by exposure to OGD condition for 3 hrs; type: functional, cell-based; settings: time 15.0 hrs
[1] = biological target: Voltage-gated inwardly rectifying potassium channel KCNH2 (Homo sapiens, UniProt Q12809); experiment: Inhibition of hERG at 30 uM; type: toxicity
Mus musculus [2] = experiment: Inhibition of cardiomyocyte hypertrophy in ISO-induced heart failure C57BL/6J mouse assessed as decrease in ANP level administered orally daily for 14 days by Western blot analysis; type: functional, organism-based; settings: dose 5-20 mg/kg/day, route po, time 14.0 day
[3] = Toxicity in C57BL/6J mouse assessed as change in relative organ weights at 400 mg/kg, po administered as single dose measured for 7 days; type: organism-based; settings: in vivo, 168 h, time 7 day
[4] = Tmax in C57/6J mouse at 20 mg/kg, po measured for 24 hrs; type: ADME, organism-based; settings: in vivo
[5] = AUC (0 to t) in C57/6J mouse at 5 mg/kg, iv measured for 24 hrs; type: ADME, organism-based; settings: in vivo
Mus musculus [6] = experiment: Inhibition of cardiomyocyte hypertrophy in ISO-induced heart failure C57BL/6J mouse assessed as increase in Bcl-2 level in heart tissue at 5 to 20 mg/kg/day, po for 14 days by Western blot analysis; type: functional, organism-based; settings: dose 5-20 mg/kg/day, time 14.0 day
[7] = Toxicity in C57BL/6J mouse assessed as animal mortality at 400 mg/kg, po administered as single dose measured for 7 days; type: organism-based; settings: in vivo, 168 h, time 7 day
Mus musculus [8] = experiment: Improvement in motor ability in ISO-induced heart failure C57BL/6J mouse assessed as increase in time of remote motion with rotarod at 5 to 20 mg/kg/day, po for 14 days; type: functional, organism-based; settings: dose 5-20 mg/kg/day, time 14.0 day
[9] = Metabolic stability in human liver microsomes assessed as half life measured for 5 to 60 mins in presence of NADPH by LC-MS/MS analysis; type: ADME, Microsome; settings: time 5-60 min
Mus musculus [10] = experiment: Inhibition of cardiomyocyte hypertrophy in ISO-induced heart failure C57BL/6J mouse assessed as decrease in ratio of p-PI3K to PI3K levels in heart tissue administered orally daily for 14 days by Western blot analysis; type: functional, organism-based; settings: dose 5-20 mg/kg/day, route po, time 14.0 day
Mus musculus [11] = experiment: Inhibition of cardiomyocyte hypertrophy in ISO-induced heart failure C57BL/6J mouse at 5 to 20 mg/kg/day, po for 14 days by WGA staining based analysis; type: functional, organism-based; settings: dose 5-20 mg/kg/day, time 14.0 day
Mus musculus [12] = experiment: Inhibition of cardiomyocyte hypertrophy in ISO-induced heart failure C57BL/6J mouse assessed as decrease in ratio of p-GSK-3beta to GSK-3beta levels in heart tissue administered orally daily for 14 days by Western blot analysis; type: functional, organism-based; settings: dose 5-20 mg/kg/day, route po, time 14.0 day
CYP3A4 = CYP3A4 (Homo sapiens, UniProt P08684); experiment: Inhibition of CYP3A4 in human liver microsomes preincubated for 10 mins followed by NADPH addition measured after 10 mins by LC/MS/MS analysis relative to control; type: ADME, Microsome; settings: time 20 min
Mus musculus [13] = experiment: Cardioprotective activity in ISO-induced heart failure C57BL/6J mouse assessed as ejection fraction in heart at 20 mg/kg/day, po for 14 days by echocardiography (reference value: 49.55 +/- 2.41 %); type: functional; settings: time 14 day
H9c2 [14] = experiment: Cytoprotective activity against OGD-induced myocardial ischemic injury in rat H9c2 cells assessed as cell viability at 50 uM preincubated for 12 hrs followed by exposure to OGD condition for 3 hrs by CCK8 assay (reference value: 49.23 to 50.05 %); type: functional; settings: time 15 hrs, read-out: Activity
H9c2 [15] = experiment: Inhibition of apoptosis in ISO-treated rat H9c2 cells by Annexin V-FITC/PI staining based flow cytometry; type: functional, cell-based; settings: dose 5-50 µM
H9c2 [16] = experiment: Inhibition of cardiomyocyte hypertrophy in ISO-treated rat H9c2 cells at 50 uM preincubated for 12 hrs followed by ISO treatment for 36 hrs by FITC-Phalloidin staining based analysis; type: functional, cell-based; settings: time 48.0 hrs
CYP2D6 = CYP2D6 (Homo sapiens, UniProt P10635); experiment: Inhibition of CYP2D6 in human liver microsomes preincubated for 10 mins followed by NADPH addition measured after 10 mins by LC/MS/MS analysis relative to control; type: ADME, Microsome; settings: time 20 min
Mus musculus [17] = experiment: Cardioprotective activity in ISO-induced heart failure C57BL/6J mouse assessed as fractional shortening in heart at 20 mg/kg/day, po for 14 days by echocardiography (reference value: 24.49 +/- 1.49 %); type: functional; settings: time 14 day
[18] = Metabolic stability in mouse liver microsomes assessed as intrinsic clearance measured for 5 to 60 mins in presence of NADPH by LC-MS/MS analysis; type: ADME, Microsome; settings: time 5-60 min, read-out: CLH
[19] = Cmax in C57/6J mouse at 5 mg/kg, iv measured for 24 hrs; type: ADME, organism-based; settings: in vivo
H9c2 [20] = experiment: Inhibition of cardiomyocyte hypertrophy in rat H9c2 cells assessed as decrease in ISO-induced ANP level at 50 uM by Western blot analysis; type: functional, cell-based
[21] = AUC (0 to t) in C57/6J mouse at 20 mg/kg, po measured for 24 hrs; type: ADME, organism-based; settings: in vivo
[22] = Half life in C57/6J mouse at 20 mg/kg, po measured for 24 hrs; type: ADME, organism-based; settings: in vivo
CYP2C19 = CYP2C19 (Homo sapiens, UniProt P33261); experiment: Inhibition of CYP2C19 in human liver microsomes preincubated for 10 mins followed by NADPH addition measured after 10 mins by LC/MS/MS analysis relative to control; type: ADME, Microsome; settings: time 20 min
H9c2 [23] = experiment: Cytoprotective activity against OGD-induced myocardial ischemic injury in rat H9c2 cells assessed as decrease in cell death at 5 to 50 uM preincubated for 12 hrs followed by exposure to OGD condition for 3 hrs by crystal violet staining based analysis; type: functional; settings: dose 5-50 µM, time 15.0 hrs
[24] = Metabolic stability in mouse liver microsomes assessed as half life measured for 5 to 60 mins in presence of NADPH by LC-MS/MS analysis; type: ADME, Microsome; settings: time 5-60 min
[25] = Toxicity in C57BL/6J mouse assessed as signs of morbidity at 400 mg/kg, po administered as single dose measured for 7 days; type: organism-based; settings: in vivo, 168 h, time 7 day
[26] = MRT (0 to t) in C57/6J mouse at 5 mg/kg, iv measured for 24 hrs; type: ADME, organism-based; settings: in vivo
Mus musculus [27] = experiment: Inhibition of cardiomyocyte hypertrophy in ISO-induced heart failure C57BL/6J mouse assessed as decrease in AKT phosphorylation in heart tissue administered orally daily for 14 days by Western blot analysis; type: functional, organism-based; settings: dose 5-20 mg/kg/day, route po, time 14.0 day
H9c2 [28] = experiment: Inhibition of apoptosis in ISO-treated rat H9c2 cells assessed as decrease in Bax level by Western blot analysis; type: functional, cell-based; settings: dose 5-50 µM
Mus musculus [29] = experiment: Inhibition of cardiomyocyte hypertrophy in ISO-induced heart failure C57BL/6J mouse assessed as decrease in Bax level in heart tissue at 5 to 20 mg/kg/day, po for 14 days by Western blot analysis; type: functional, organism-based; settings: dose 5-20 mg/kg/day, time 14.0 day

Sequence of CYP3A4 (P08684 whole entry): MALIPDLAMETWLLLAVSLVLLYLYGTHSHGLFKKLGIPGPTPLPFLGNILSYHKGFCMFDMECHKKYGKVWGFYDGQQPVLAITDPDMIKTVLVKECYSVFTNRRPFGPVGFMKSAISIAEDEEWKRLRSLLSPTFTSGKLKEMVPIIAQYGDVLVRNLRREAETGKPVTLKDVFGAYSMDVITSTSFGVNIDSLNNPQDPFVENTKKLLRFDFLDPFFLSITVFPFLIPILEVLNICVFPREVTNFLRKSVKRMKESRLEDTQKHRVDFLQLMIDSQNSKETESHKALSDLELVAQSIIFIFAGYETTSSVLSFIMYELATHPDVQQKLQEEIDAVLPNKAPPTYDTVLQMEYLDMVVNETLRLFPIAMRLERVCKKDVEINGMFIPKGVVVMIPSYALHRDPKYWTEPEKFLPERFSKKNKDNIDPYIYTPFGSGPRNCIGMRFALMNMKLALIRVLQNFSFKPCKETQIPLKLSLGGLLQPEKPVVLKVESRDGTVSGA
Sequence of Voltage-gated inwardly rectifying potassium channel KCNH2 (Q12809 whole entry): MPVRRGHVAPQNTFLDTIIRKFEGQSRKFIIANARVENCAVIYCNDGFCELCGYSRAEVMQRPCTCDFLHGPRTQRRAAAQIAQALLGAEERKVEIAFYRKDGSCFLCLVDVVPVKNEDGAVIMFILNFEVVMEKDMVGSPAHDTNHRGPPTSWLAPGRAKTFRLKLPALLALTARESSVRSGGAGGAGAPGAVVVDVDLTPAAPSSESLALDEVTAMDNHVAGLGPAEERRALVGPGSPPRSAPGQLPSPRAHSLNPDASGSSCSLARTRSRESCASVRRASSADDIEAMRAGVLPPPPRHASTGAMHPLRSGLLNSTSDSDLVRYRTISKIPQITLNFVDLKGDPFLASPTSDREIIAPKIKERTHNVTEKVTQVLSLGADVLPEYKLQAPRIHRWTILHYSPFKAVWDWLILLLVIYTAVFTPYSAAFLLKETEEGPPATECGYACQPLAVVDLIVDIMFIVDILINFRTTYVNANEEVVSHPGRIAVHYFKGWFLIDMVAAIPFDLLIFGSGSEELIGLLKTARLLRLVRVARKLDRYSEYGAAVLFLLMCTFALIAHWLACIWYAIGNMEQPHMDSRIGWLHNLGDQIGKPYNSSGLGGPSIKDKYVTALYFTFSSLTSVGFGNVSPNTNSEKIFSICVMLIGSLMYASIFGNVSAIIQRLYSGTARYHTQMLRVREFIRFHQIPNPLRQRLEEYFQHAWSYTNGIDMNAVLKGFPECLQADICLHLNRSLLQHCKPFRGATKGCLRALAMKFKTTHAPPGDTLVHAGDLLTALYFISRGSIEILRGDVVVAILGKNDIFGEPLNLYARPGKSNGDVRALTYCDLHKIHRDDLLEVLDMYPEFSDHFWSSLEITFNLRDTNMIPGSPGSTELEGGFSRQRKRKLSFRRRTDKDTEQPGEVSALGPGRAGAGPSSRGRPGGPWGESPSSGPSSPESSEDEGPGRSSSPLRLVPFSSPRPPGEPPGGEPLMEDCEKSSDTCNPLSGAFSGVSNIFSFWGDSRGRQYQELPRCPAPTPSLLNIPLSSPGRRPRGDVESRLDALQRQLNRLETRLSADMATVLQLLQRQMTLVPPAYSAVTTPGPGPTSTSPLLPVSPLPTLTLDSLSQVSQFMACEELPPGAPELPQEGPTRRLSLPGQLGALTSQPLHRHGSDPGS
Sequence of CYP2C19 (P33261 whole entry): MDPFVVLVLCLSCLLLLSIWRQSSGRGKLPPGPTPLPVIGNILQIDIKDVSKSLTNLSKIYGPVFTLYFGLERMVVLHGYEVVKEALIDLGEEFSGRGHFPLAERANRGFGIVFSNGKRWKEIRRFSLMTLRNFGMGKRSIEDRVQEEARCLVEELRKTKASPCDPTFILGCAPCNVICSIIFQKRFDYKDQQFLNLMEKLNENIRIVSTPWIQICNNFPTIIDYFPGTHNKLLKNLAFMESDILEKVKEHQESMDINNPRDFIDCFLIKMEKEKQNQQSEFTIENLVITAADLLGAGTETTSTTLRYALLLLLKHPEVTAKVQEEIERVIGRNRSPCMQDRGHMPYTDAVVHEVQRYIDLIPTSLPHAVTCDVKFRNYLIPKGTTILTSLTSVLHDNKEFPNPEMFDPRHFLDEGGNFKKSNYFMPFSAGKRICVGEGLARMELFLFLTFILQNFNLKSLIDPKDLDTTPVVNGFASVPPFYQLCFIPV
Sequence of CYP2D6 (P10635 whole entry): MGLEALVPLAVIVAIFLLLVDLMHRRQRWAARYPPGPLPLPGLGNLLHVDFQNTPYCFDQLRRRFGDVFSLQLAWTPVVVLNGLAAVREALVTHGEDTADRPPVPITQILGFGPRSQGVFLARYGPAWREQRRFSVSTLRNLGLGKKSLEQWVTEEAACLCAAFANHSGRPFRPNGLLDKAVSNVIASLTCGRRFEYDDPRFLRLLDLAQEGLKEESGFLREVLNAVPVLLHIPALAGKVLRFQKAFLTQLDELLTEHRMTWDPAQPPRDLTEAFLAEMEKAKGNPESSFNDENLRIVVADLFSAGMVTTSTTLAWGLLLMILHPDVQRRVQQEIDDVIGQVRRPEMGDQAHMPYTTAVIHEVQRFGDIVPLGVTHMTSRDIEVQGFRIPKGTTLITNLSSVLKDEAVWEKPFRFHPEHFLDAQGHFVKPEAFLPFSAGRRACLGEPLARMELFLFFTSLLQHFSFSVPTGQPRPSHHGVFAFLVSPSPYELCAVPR

Structure (SMILES): OC[C@H]1O[C@@H](O[C@@H]2OC=C[C@H]3[C@H](O)[C@@H]4O[C@]4(COc4ccc(C(F)(F)F)cc4)[C@@H]23)[C@H](O)[C@@H](O)[C@@H]1O
- Activity (Cardiac muscle cell): Active; Exhibited Moderate Effect
- inhibition (INH) [1]: Not_active
- inhibition (Mus musculus [2]): Dose-dependent-effect; Restored Anp Level To Physiological Level
- Activity [3]: Non-toxic
- Tmax [4]: 1.42 h
- AUC(0-t) at 24 h [5]: 1090 ng·h/mL
- inhibition (Mus musculus [6]): Active
- Activity [7]: Non-toxic
- Activity (Mus musculus [8]): Active
- half-life [9]: > 2.42 h
- inhibition (Mus musculus [10]): Dose-dependent-effect
- inhibition (Mus musculus [11]): Active
- inhibition (Mus musculus [12]): Dose-dependent-effect
- inhibition at 10 min (CYP3A4): 0.4%
- Activity (Mus musculus [13]): 58.46%
- viability at 50 µM (H9c2 [14]): 72%
- inhibition (H9c2 [15]): Active; Exhibited Significantly Greater Decrease In Apoptotic Rate
- inhibition (H9c2 [16]): Active
- inhibition at 10 min (CYP2D6): 4.3%
- Activity (Mus musculus [17]): 31.27%
- CLint scaled [18]: < 38 mL/min/kg
- Cmax [19]: 2710 ng/mL
- inhibition (H9c2 [20]): Active
- AUC(0-t) at 24 h [21]: 1820 ng·h/mL
- half-life [22]: 1.01 h
- inhibition at 10 min (CYP2C19): 10.2%
- Activity (H9c2 [23]): Active; Exhibited Superior Protective Efficacy Than Catal-Pol
- half-life [24]: > 2.42 h
- Activity [25]: Non-toxic
- MRT last at 24 h [26]: 0.52 h
- inhibition (Mus musculus [27]): Dose-dependent-effect
- inhibition (H9c2 [28]): Dose-dependent-effect
- inhibition (Mus musculus [29]): Active

Reference: ChEMBL document CHEMBL6153118, “Structure Optimization of Natural Product Catalpol to Obtain Novel and Potent Analogs against Heart Failure” (J Med Chem, 2025)
